Assay results published in ChEMBL document CHEMBL1156829 (Proc Natl Acad Sci U S A, 2008).

Columns and labels:
[1] = tested on: Plasmodium falciparum; assay: NOVARTIS: Inhibition of Plasmodium falciparum 3D7 (drug-susceptible) proliferation in erythrocyte-based infection assay; type: functional, organism-based; details: Plasmodium falciparum, 3D7
[2] = tested on: Plasmodium falciparum; assay: NOVARTIS: Inhibition of Plasmodium falciparum W2 (drug-resistant) proliferation in erythrocyte-based infection assay; type: functional, organism-based; details: Plasmodium falciparum, W2; read-out: EC50
[3] = NOVARTIS: Cytotoxicity against human hepatocellular carcinoma cell line (Huh7); type: toxicity, cell-based, Huh-7; details: Huh7 cells (hepatocellular carcinoma cell line)

SMILES | EC50 [1] | EC50 [2] | CC50 [3]
NNc1ncnc2[nH]cnc12 | 303 nM | 666 nM | > 10000 nM
COc1ccc2nc(C)cc(Nc3ccc(Cl)c(Cl)c3)c2c1 | 249 nM | 426 nM | 6250 nM
O=C(Nc1ccc(-c2cnc(-c3ccc(NC(=O)c4cccc([N+](=O)[O-])c4)cc3)nc2)cc1)c1cccc([N+](=O)[O-])c1 | > 480 nM | 681 nM | > 10000 nM
CC(=O)Nc1c(C)cc(Cl)cc1Cl | 1450 nM | 661 nM | > 10000 nM
COc1ccc(OC)c(-c2ccc(O)c(CNCC(C)c3ccccc3)c2)c1 (centres undefined) | 960 nM | 672 nM | > 10000 nM
Oc1ccc(-c2ccc(F)cc2)cc1CNCCN1CCOCC1 | 901 nM | 681 nM | > 10000 nM
COc1ccc(C2SCCN2S(=O)(=O)c2cccc([N+](=O)[O-])c2)cc1OC (centres undefined) | > 1250 nM | > 676 nM | > 10000 nM
CC(C)CN(C(C(=O)NC(CN1CCCC1)c1ccccc1)c1ccccc1)S(=O)(=O)c1ccccn1 (centres undefined) | 1320 nM | 682 nM | > 10000 nM
Cc1ccc(-c2c3c(nc4sc(C(=O)Nc5ccc(Cl)cc5)c(N)c24)CCCC3)o1 | 8310 nM | 6780 nM | > 100000 nM
COc1ccc(Nc2nc(Nc3ccc(OC)cc3)c3[nH]ccc3n2)cc1 | 667 nM | 678 nM | > 10000 nM
CC(=O)Nc1ccc(NC2=CC(=NS(=O)(=O)c3ccccc3)c3ccccc3C2=O)cc1 | 509 nM | 466 nM | 6880 nM
Cc1nnc2sc(SCc3cccc([N+](=O)[O-])c3)nn2c1=O | > 1070 nM | 942 nM | > 13900 nM
CCn1c(C)cc(/C=C2\C(=O)NC(=O)N(c3cccc(Cl)c3)C2=O)c1C | > 674 nM | 679 nM | > 10000 nM
Clc1ccccc1Nc1nc2nonc2nc1Nc1cccc(Br)c1 | > 1250 nM | > 678 nM | > 10000 nM
Cc1cc(NS(=O)(=O)c2ccc(NC(=O)c3ccc([N+](=O)[O-])cc3)cc2)no1 | > 1250 nM | > 678 nM | > 10000 nM
COc1cccc(CCN2Cc3ccc(C(=O)NC(C)C)cc3N=C2c2ccc(C)cc2)c1 | 938 nM | 680 nM | > 10000 nM
NC(=O)C(Cc1ccccc1)Nc1ccc([N+](=O)[O-])cc1[N+](=O)[O-] (centres undefined) | 883 nM | 680 nM | > 10000 nM
COc1ccc(NC(=O)Cn2c(-c3ccc(OC)cc3)cn(-c3ccc(C)cc3)c2=O)cc1 | 889 nM | > 676 nM | > 10000 nM
Cc1ccc(Sc2c(C)nn(C(=O)c3cccnc3)c2C)cc1 | 322 nM | > 677 nM | > 10000 nM
COc1ccc([N+](=O)[O-])cc1N(CC1CO1)S(=O)(=O)c1ccc(C)cc1 (centres undefined) | > 12500 nM | 6640 nM | > 100000 nM
CCOC(=O)c1cnc(SCC(=O)Nc2cc(C)ccc2C)nc1N | > 1250 nM | > 660 nM | > 10000 nM
CCCCCCN(C(=O)c1ccccc1)C(CC)c1nc2ccccc2c(=O)n1-c1ccccc1OC (centres undefined) | 1050 nM | 526 nM | > 7980 nM
COc1ccccc1NC(=O)CCCC(=O)OC(C)C(=O)c1ccccc1 (centres undefined) | > 1250 nM | > 659 nM | > 10000 nM
FC(F)(F)c1cccc(CNC2CCN(CCc3ccccc3)CC2)c1 | 174 nM | 487 nM | 7390 nM
Cc1ccc(Sc2cc(C(=O)NCc3ccco3)c3ccccc3n2)cc1 | > 6980 nM | 6580 nM | > 100000 nM
C(=C\c1ccccc1)/CNC1CCN(Cc2ccccc2)CC1 | 995 nM | 657 nM | > 10000 nM
Cc1cccc(Nc2nc(NCc3ccco3)c3ccccc3n2)c1 | 266 nM | 326 nM | 4930 nM

SMILES | EC50 [1] | EC50 [2] | CC50 [3]
COc1ccc(NC(=O)NCc2cccn2Cc2ccc(F)cc2)cc1OC | 1070 nM | 661 nM | > 10000 nM
CCCCCCCCN[C@@H](C)[C@@H](O)c1ccc(SC(C)C)cc1 | > 1250 nM | 413 nM | > 6250 nM
COc1cc(C=CC(=O)Nc2ccc3nc(N4CCN(c5ncccn5)CC4)cc(C)c3c2)cc(OC)c1OC | 841 nM | 505 nM | 7420 nM
CCCN(CCC)C(=O)c1c[nH]c2ccc(S(=O)(=O)N(C)c3ccc(F)cc3)cc2c1=O | > 12500 nM | 6650 nM | > 100000 nM
CC(C)(C)CC(C)(C)Nc1c(-c2ccccc2OC(=O)c2ccc(Br)cc2)nc2ccccn12 | 1310 nM | 96 nM | > 1430 nM
CC(O)c1ccc(NC(=O)c2cnn3c2NC(c2ccco2)CC3C(F)(F)F)cc1 (centres undefined) | > 1250 nM | > 675 nM | > 10000 nM
Cc1cccc(CN2CCC(CNC(=S)Nc3ccc4nc(N5CCN(C)CC5)cc(C)c4c3)CC2)c1 | > 9900 nM | 6760 nM | > 100000 nM
COc1ccc(N2C(=O)c3cccnc3C2=O)cc1 | 1980 nM | 665 nM | > 10000 nM
CCC1=NN2C(=N)/C(=C/c3ccc(OCCOc4ccc(Br)cc4)c(OC)c3)C(=O)N=C2S1 | > 1250 nM | > 675 nM | > 10000 nM
O=C1Nc2ccccc2C1=NN=Cc1ccc(-c2ccccc2[N+](=O)[O-])o1 | > 12500 nM | 6750 nM | > 100000 nM
COc1cccc(CN2CCN(C3CCCC(C)C3)CC2)c1OC (centres undefined) | > 12500 nM | > 6700 nM | > 100000 nM
CC1CCN(S(=O)(=O)c2ccc(C(=O)Nc3sc4c(c3C(N)=O)CCN(C)C4)cc2)CC1 | > 1250 nM | > 665 nM | > 10000 nM
COc1ccc(C=NNc2cc(C)nc(-c3ccccc3)n2)cc1OC | 8510 nM | 3300 nM | 48800 nM
COc1ccc(C(=NO)C2CC2c2ccc(Cl)cc2)cc1 (centres undefined) | 735 nM | 668 nM | > 10000 nM
CCCCCN(C(=O)c1cccc(C(F)(F)F)c1)C(CC)c1nc2ccccc2c(=O)n1-c1ccccc1OC (centres undefined) | 728 nM | 673 nM | > 10000 nM
Cc1cccc(NC(=O)N2CCN(C(=O)c3nc(-c4ccccc4)nc(C)c3C(=O)OC(C)C)CC2C)c1C (centres undefined) | 509 nM | 384 nM | > 5760 nM
COc1ccc(C(=O)C[n+]2ccc(N)c(C)c2C)cc1 | 438 nM | > 665 nM | > 10000 nM
CCC(=O)N1c2ccccc2NC2=C(C(=O)CC(C)(C)C2)C1c1ccc2c(c1)OCO2 (centres undefined) | 3530 nM | 6720 nM | > 100000 nM
CCOc1cccc2c1N(C(=O)c1ccc(C)cc1)C(C)(C)C1=C2C2(SC(C(=O)OC)=C(C(=O)OC)S2)C(C(=O)OC)=C(C(=O)OC)S1 | 1080 nM | 663 nM | > 10000 nM
COC(=O)C(C)NC(=O)c1ccc(F)cc1 (centres undefined) | > 1250 nM | 681 nM | > 10000 nM
CC(=O)N(Cc1ccc(F)cc1)C1=C(NCc2ccccc2)C(=O)c2ccccc2C1=O | 680 nM | 679 nM | > 10000 nM
COc1cc(NC(C)CCCN(Cc2ccc(OC)c(OC)c2)C(=O)c2ccccc2C)c2ncccc2c1 (centres undefined) | 867 nM | 831 nM | > 12200 nM
O=C(CCl)Nc1ccc(N2CCCCCC2)cc1 | 1260 nM | 1330 nM | 19700 nM
CC(C)(C)NS(=O)(=O)c1cc(Cl)ccc1Cl | > 1250 nM | 730 nM | > 10900 nM
CN(C)CC(C)(C)CNCc1cc(-c2ccnc3cc(Cl)ccc23)ccc1O | 880 nM | 660 nM | > 10000 nM
CC(C)[C@@]1(NC(=O)[C@@H]2C[C@@H]3c4cccc5[nH]cc(c45)C[C@H]3N(C)C2)O[C@@]2(O)[C@@H]3CCCN3C(=O)[C@H](CC3CCCCC3)N2C1=O | 1160 nM | 768 nM | > 11400 nM
